ChEMBL document CHEMBL1138501, “Structure-guided design, synthesis, and evaluation of salicylic acid-based inhibitors targeting a selectivity pocket in the active site of human 20alpha-hydroxysteroid dehydrogenase (AKR1C1)” (J Med Chem, 2009)

Tests used:
[1] = Cytotoxicity against BAEC assessed as cell viability at 10 uM; format: cell-based, Bos taurus; details: cattle
[2] = target: T1, Aldo-keto reductase family 1 member C3 (Homo sapiens, UniProt P42330); test: Inhibition of human recombinant type 2 3-alpha-HSD expressed in Escherichia coli JM109
T1 sequence (P42330 whole entry): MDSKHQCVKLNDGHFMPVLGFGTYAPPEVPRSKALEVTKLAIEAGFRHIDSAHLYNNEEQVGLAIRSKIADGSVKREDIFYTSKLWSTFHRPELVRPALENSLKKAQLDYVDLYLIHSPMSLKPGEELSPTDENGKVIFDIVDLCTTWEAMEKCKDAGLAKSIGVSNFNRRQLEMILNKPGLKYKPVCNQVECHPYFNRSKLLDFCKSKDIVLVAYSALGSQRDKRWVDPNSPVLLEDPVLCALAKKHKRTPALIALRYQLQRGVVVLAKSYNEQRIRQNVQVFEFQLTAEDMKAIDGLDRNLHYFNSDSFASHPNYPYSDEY

[3] = target: T2, Aldo-keto reductase family 1 member C4 (Homo sapiens, UniProt P17516); test: Inhibition of human recombinant type 1 3-alpha-HSD expressed in Escherichia coli JM109
T2 sequence (P17516 whole entry): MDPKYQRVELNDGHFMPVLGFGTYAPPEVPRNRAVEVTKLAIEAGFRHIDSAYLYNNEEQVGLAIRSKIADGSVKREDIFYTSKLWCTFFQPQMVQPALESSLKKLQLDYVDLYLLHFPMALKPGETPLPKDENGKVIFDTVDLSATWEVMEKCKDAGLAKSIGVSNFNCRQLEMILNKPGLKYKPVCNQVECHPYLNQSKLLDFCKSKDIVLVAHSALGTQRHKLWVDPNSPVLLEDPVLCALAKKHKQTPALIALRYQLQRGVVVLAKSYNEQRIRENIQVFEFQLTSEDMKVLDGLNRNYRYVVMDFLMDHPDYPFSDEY

[4] = target: T3, Aldo-keto reductase family 1 member C1 (Homo sapiens, UniProt Q04828); test: Inhibition of 20-alpha HSD
T3 sequence (Q04828 whole entry): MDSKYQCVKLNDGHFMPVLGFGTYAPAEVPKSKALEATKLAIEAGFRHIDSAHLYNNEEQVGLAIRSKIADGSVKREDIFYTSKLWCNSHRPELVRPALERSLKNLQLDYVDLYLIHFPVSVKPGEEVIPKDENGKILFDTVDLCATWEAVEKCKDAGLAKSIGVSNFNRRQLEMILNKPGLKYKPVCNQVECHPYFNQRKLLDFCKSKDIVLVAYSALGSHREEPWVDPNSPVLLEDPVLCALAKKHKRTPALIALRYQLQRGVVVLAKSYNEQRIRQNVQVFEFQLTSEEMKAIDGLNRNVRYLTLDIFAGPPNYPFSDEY

[5] = target: T3, Aldo-keto reductase family 1 member C1
Description: Inhibition of human recombinant 20-alpha HSD expressed in Escherichia coli JM109

[6] = target: T4, Aldo-keto reductase family 1 member C1 (Homo sapiens) (UniProt Q04828); details: 10 uM
T4 sequence (whole entry): T3 sequence (Q04828 whole entry)

| SMILES | Ki [2] [µM] | Ki ([3]; read-out: Ki) [µM] | Ki [3] | Ki [5] [µM] | inhibition [6] [%] | Activity [1] | IC50 [4] [µM] |
| --- | --- | --- | --- | --- | --- | --- | --- |
| CCc1oc2ccccc2c1C(=O)c1cc(Br)c(O)c(Br)c1 [BENZBROMARONE] | – | – | – | – | – | – | 0.048 |
| O=C1OC(c2cc(Br)c(O)c(Br)c2)(c2cc(Br)c(O)c(Br)c2)c2ccccc21 | – | – | – | – | – | – | 0.033 |

The next lines start with results.

| Ki [2] [µM] | Ki ([3]; read-out: Ki) [µM] | Ki [3] | Ki [5] [µM] | inhibition [6] [%] | SMILES | Activity [1] | IC50 [4] [µM] |
| --- | --- | --- | --- | --- | --- | --- | --- |
| 23 | 45.7 | – | – | – | O=C(O)c1cc(Br)cc(Br)c1O | Non-toxic | – |
| 4.2 | 18.2 | – | – | – | O=C(O)c1cc(-c2ccccc2)cc(Br)c1O | Non-toxic | – |
| 21 | – | Not Active | 0.14 | 40 | O=C(O)c1cc(Br)cc(-c2ccccc2)c1O | Non-toxic | – |
